According to patent US9745317B2, “Heterocyclic compounds and their use as dopamine D1 ligands” (PFIZER INC., priority 2014, dated 2017):
Counter-ions that a name gives are not always drawn.

target: Human D1 Receptor (Homo sapiens (Human), UniProt P21728); assay: Human D1 receptor binding assay ([^3H]-SCH23390 competition binding); conditions: over-expressing LTK human cell lines; 0.5 nM [^3H]-SCH23390; 30 min at 37° C.; footnote a = single determination, b = geometric mean of ≧5 determinations; read-out: Human D1 Receptor Binding, Ki (nM); Geometric mean of 2-4 determinations (unless otherwise indicated)
Description: The affinity of the compounds described herein was determined by competition binding assays similar to those described in Ryman-Rasmussen et al., “Differential activation of adenylate cyclase and receptor internalization by novel dopamine D1 receptor agonists”, Molecular Pharmacology 68(4):1039-1048 (2005).
D1 binding assays were performed using over-expressing LTK human cell lines. […] These ligand and tissue concentrations were used in time course studies to determine linearity and equilibrium conditions for binding. Binding was at equilibrium with the specified amount of tissue in 30 minutes at 37° C. […] The pellet was resuspended in assay buffer [50 mM Tris (pH 7.4@ RT) containing 4 mM MgSO4 and 0.5 mM EDTA]. […] Non-specific binding was determined by radioligand binding in the presence of a saturating concentration of (+)-Butaclamol (10 μM), a D1 antagonist. After a 30 minute incubation period at 37° C., assay samples were rapidly filtered through Unifilter-96 GF/B PEI-coated filter plates and rinsed with 50 mM Tris buffer (pH 7.4 at 4° C.). […] The IC50 value (concentration at which 50% inhibition of specific binding occurs) was calculated by linear regression of the concentration-response data in Microsoft Excel. Ki values were calculated according to the Cheng-Prusoff equation: […]

Human D1 Receptor, sequence (P21728 whole entry): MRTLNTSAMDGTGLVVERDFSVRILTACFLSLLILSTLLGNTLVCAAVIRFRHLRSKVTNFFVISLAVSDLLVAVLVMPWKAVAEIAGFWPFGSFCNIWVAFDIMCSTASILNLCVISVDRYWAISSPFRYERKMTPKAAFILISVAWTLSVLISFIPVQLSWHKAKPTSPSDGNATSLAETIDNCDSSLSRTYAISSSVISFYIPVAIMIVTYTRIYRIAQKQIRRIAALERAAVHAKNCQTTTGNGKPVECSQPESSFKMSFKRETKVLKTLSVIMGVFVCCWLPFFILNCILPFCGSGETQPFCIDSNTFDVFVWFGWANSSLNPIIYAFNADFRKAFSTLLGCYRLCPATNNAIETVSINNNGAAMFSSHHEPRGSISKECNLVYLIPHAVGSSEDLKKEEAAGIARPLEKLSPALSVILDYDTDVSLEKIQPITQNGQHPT

SMILES	Ki
Cc1cc(Oc2nccc3c2CCO3)ccc1-c1c(C)ncc(=O)n1C (single isomer, unassigned) [Example 22, (−)-6-[4-(2,3-dihydrofuro[3,2-c]pyridin-4-yloxy)-2-methylphenyl]-1,5-dimethylpyrazin-2(1H)-one]	202 nM
Cc1cc(Oc2nccc3c2CCO3)ccc1-c1c(C)ncc(=O)n1C (single isomer, unassigned) [Example 23, (+)-6-[4-(2,3-dihydrofuro[3,2-c]pyridin-4-yloxy)-2-methylphenyl]-1,5-dimethylpyrazin-2(1H)-one]	706 nM
Cc1cc(Oc2nccc3c2CCN3)ccc1-c1c(C)n[nH]c(=O)c1C (single isomer, unassigned; ent-1) [Example 9, 5-[4-(2,3-Dihydro-1H-pyrrolo[3,2-c]pyridin-4-yloxy)-2-methylphenyl]-4,6-dimethylpyridazin-3(2H)-one, ENT-1]	35.6 nM
Cc1cc(Oc2nccc3c2CCN3)ccc1-c1c(C)n[nH]c(=O)c1C (single isomer, unassigned; ent-2) [Example 10, 5-[4-(2,3-Dihydro-1H-pyrrolo[3,2-c]pyridin-4-yloxy)-2-methylphenyl]-4,6-dimethylpyridazin-3(2H)-one, ENT-2]	50.5 nM
Cc1cc(Oc2nccc3c2CCO3)ccc1-c1c(C)ncnc1C [Example 1, 4-[4-(4,6-Dimethylpyrimidin-5-yl)-3-methylphenoxy]-2,3-dihydrofuro[3,2-c]pyridine]	76.8 nM
Cc1cc(Oc2nccc3c2CCN3)ccc1-c1c(C)n[nH]c(=O)c1C [Example 8, 5-[4-(2,3-Dihydro-1H-pyrrolo[3,2-c]pyridin-4-yloxy)-2-methylphenyl]-4,6-dimethylpyridazin-3(2H)-one]	8.4 nM
Cc1cc(Oc2nccc3c2C(O)CO3)ccc1-c1c(C)n[nH]c(=O)c1C (stereo not drawn) [Example 16, 5-{4-[(3-Hydroxy-2,3-dihydrofuro[3,2-c]pyridin-4-yl)oxy]-2-methylphenyl}-4,6-dimethylpyridazin-3(2H)-one]	4.8 nM
Cc1cc(Oc2ncnc3c2CCN3)ccc1-c1c(C)ncnc1C [Example 19, 4-[4-(4,6-dimethylpyrimidin-5-yl)-3-methylphenoxy]-6,7-dihydro-5H-pyrrolo[2,3-d]pyrimidine]	156 nM
Cc1c(-c2ccc(Oc3ncnc4c3CCC4)cc2)n(C)c(=O)[nH]c1=O [Example 28, 6-[4-(6,7-dihydro-5H-cyclopenta[d]pyrimidin-4-yloxy)phenyl]-1,5-dimethylpyrimidine-2,4(1H,3H)-dione]	202 nM

Further lines, results first:

Ki	SMILES
201 nM	Cc1cc(Oc2nccc3c2CCN3)ccc1-c1c(C)ncc(=O)n1C (single isomer, unassigned) [Example 24, (+)-6-[4-(2,3-dihydro-1H-pyrrolo[3,2-c]pyridin-4-yloxy)-2-methylphenyl]-1,5-dimethylpyrazin-2(1H)-one]
75.8 nM	Cc1cc(Oc2nccc3c2CCN3)ccc1-c1c(C)ncc(=O)n1C (single isomer, unassigned) [Example 25, (−)-6-[4-(2,3-dihydro-1H-pyrrolo[3,2-c]pyridin-4-yloxy)-2-methylphenyl]-1,5-dimethylpyrazin-2(1H)-one]
14 nM	Cc1cc(Oc2nccc3c2CCO3)ccc1-c1c(C)n[nH]c(=O)c1C [Example 5, 5-[4-(2,3-Dihydrofuro[3,2-c]pyridin-4-yloxy)-2-methylphenyl]-4,6-dimethylpyridazin-3(2H)-one]
12.6 nM	Cc1cc(Oc2nccc3c2CCO3)ccc1-c1c(C)n[nH]c(=O)c1C [Example 6, (+)-5-[4-(2,3-Dihydrofuro[3,2-c]pyridin-4-yloxy)-2-methylphenyl]-4,6-dimethylpyridazin-3(2H)-one]
12.7 nM	Cc1cc(Oc2nccc3c2CCO3)ccc1-c1c(C)n[nH]c(=O)c1C [Example 7, (−)-5-[4-(2,3-Dihydrofuro[3,2-c]pyridin-4-yloxy)-2-methylphenyl]-4,6-dimethylpyridazin-3(2H)-one]
11.1 nM	Cc1c(-c2ccc(Oc3nccc4c3CCN4)cc2)n(C)c(=O)[nH]c1=O [Example 12, 6-[4-(2,3-Dihydro-1H-pyrrolo[3,2-c]pyridin-4-yloxy)phenyl]-1,5-dimethylpyrimidine-2,4(1H,3H)-dione]
46.1 nM	Cc1c(-c2ccc(Oc3nccc4c3CCO4)cc2)n(C)c(=O)[nH]c1=O [Example 13, 6-[4-(2,3-Dihydrofuro[3,2-c]pyridin-4-yloxy)phenyl]-1,5-dimethylpyrimidine-2,4(1H,3H)-dione, trifluoroacetate salt]
52.1 nM	Cc1cc(Oc2nccc3c2CCO3)ccc1-c1c(C)ncc2nccn12 [Example 18, 5-[4-(2,3-dihydrofuro[3,2-c]pyridin-4-yloxy)-2-methylphenyl]-6-methylimidazo[1,2-a]pyrazine]
446 nM	Cc1cc(Oc2ncnc3c2CCC3)ccc1-c1c(C)ncnc1C [Example 20, 4-[4-(4,6-dimethylpyrimidin-5-yl)-3-methylphenoxy]-6,7-dihydro-5H-cyclopenta[d]pyrimidine]
82.5 nM	Cc1cc(Oc2nccc3c2CCO3)ccc1-c1c(C)ncc(=O)n1C [Example 21, 6-[4-(2,3-dihydrofuro[3,2-c]pyridin-4-yloxy)-2-methylphenyl]-1,5-dimethylpyrazin-2(1H)-one]
162 nM	Cc1n[nH]c(=O)c(C)c1-c1ccc(Oc2nccc3c2CCO3)cc1C#N [Example 26, 5-(2,3-dihydrofuro[3,2-c]pyridin-4-yloxy)-2-(3,5-dimethyl-6-oxo-1,6-dihydropyridazin-4-yl)benzonitrile]
44.4 nM	Cc1c(-c2ccc(Oc3ncnc4c3CCN4)cc2)n(C)c(=O)[nH]c1=O [Example 27, 6-[4-(6,7-dihydro-5H-pyrrolo[2,3-d]pyrimidin-4-yloxy)phenyl]-1,5-dimethylpyrimidine-2,4(1H,3H)-dione]

same assay, conditions: read-out: Human D1 Receptor Binding, Ki (nM); Geometric mean of 2-4 determinations (unless otherwise indicated)

SMILES	Ki
Cc1cc(Oc2nccc3c2CCN3)ccc1-c1c(C)ncnc1C [Example 2, 4-[4-(4,6-Dimethylpyrimidin-5-yl)-3-methylphenoxy]-2,3-dihydro-1H-pyrrolo[3,2-c]pyridine]	78.1 nM
Cc1n[nH]c(=O)c(C)c1-c1ccc(Oc2nccc3c2CCN3)cc1 [Example 4, 5-[4-(2,3-Dihydro-1H-pyrrolo[3,2-c]pyridin-4-yloxy)phenyl]-4,6-dimethylpyridazin-3(2H)-one]	14 nM
Cc1cc(Oc2nccc3c2CCCO3)ccc1-c1c(C)n[nH]c(=O)c1C [Example 14, 5-[4-(3,4-Dihydro-2H-pyrano[3,2-c]pyridin-5-yloxy)-2-methylphenyl]-4,6-dimethylpyridazin-3(2H)-one]	70.3 nM
Cc1cc(Oc2nccc3c2C(O)CO3)ccc1-c1c(C)ncnc1C (stereo not drawn) [Example 17, 4-[4-(4,6-Dimethylpyrimidin-5-yl)-3-methylphenoxy]-2,3-dihydrofuro[3,2-c]pyridin-3-ol]	28.9 nM

The remaining lines, values ahead:

Ki	SMILES
60.4 nM	Cc1n[nH]c(=O)c(C)c1-c1ccc(Oc2ncnc3c2CCN3)cc1 [Example 11, 5-[4-(6,7-Dihydro-5H-pyrrolo[2,3-d]pyrimidin-4-yloxy)phenyl]-4,6-dimethylpyridazin-3(2H)-one]
18.1 nM	Cc1cc(Oc2nccc3c2CCCN3)ccc1-c1c(C)n[nH]c(=O)c1C [Example 15, 4,6-Dimethyl-5-[2-methyl-4-(1,2,3,4-tetrahydro-1,6-naphthyridin-5-yloxy)phenyl]pyridazin-3(2H)-one]
